“Also recorded” adds a separate entry of the source. Ends that are not written are not given here.
Legend:
[1] = system: S. pneumoniae; assay: MIC (broth microdilution); format: cell-based, Streptococcus pneumoniae
Procedure: (§1) Typically, the in vitro antimicrobial activity of antimicrobial agents is tested using standard NCCLS bacterial inhibition assays, or MIC tests (see, National Committee on Clinical Laboratory Standards “Performance Standards for Antimicrobial Susceptibility Testing,” NCCLS Document M100-S5 Vol. 14, No. 16, December 1994; “Methods for dilution antimicrobial susceptibility test for bacteria that grow aerobically-Third Edition,” Approved Standard M7-A3, National Committee for Clinical Standards, Villanova, Pa.).
(§2) Briefly, ˜1×10^5 cfu/mL bacteria were diluted in TH (S. mutans), or Mueller-Hinton (MH) broth (all other organisms) and distributed to 96-well plates. Serially-diluted (2-fold) peptides were then added and the plates incubated at 37° C. for 18-24 h. […] All experiments were conducted 10 times.

[2] = system: microorganisms; assay: Peptides having multiple activities (targeting/binding, antimicrobial, growth or phenotype altering)
From the text: In certain embodiments, peptides described herein can have multiple activities. Thus for example, a peptide can have both binding/targeting activity and antimicrobial activity. Such peptides can be used, e.g., in a chimeric construct, for any or all of these properties. Thus, for example, a peptide designated “B” in Table 8 can be used as a targeting peptide. If it is also designated G or M it can also be used for antimicrobial activity.

[3] = system: microorganisms (e.g., bacteria, yeasts, fungi); assay: Targeting peptide binding to target microorganisms (Table 3); details: preferably 1x PBS; for Target(s): microorganism(s) the targeting peptide binds, peptide binding conducted in aqueous buffers varied by peptide solubility; for Target(s) (microorganisms bound by the targeting peptide): peptide binding in aqueous buffers varied by peptide solubility
[4] = system: S. pneumoniae; assay: Kill or inhibit growth/proliferation; morphology, biofilm and growth disruption (Tables 5, 6); format: cell-based, Streptococcus pneumoniae; parameters: key: A: Peptide aggregates; B: Less hyphal formation; Clumps; Diffuse clumps and small polyps; F: Diffuse growth; H: Thin; I: Growth inhibition; Microcolony formation; Rippled; Small polyps; Thick; W: Halo formation on top, microlonies on bottom; also: test concentration or dose not given here
[5] = system: B. subtilis; assay: MIC (broth microdilution); format: cell-based, Bacillus subtilis
Procedure: as §1, §2

[6] = system: S. epidermidis; assay: Kill or inhibit growth/proliferation; morphology, biofilm and growth disruption (Tables 5, 6); format: cell-based, Staphylococcus epidermidis; parameters: key: A: Peptide aggregates; B: Less hyphal formation; Clumps; Diffuse clumps and small polyps; F: Diffuse growth; H: Thin; I: Growth inhibition; Microcolony formation; Rippled; Small polyps; Thick; W: Halo formation on top, microlonies on bottom; also: test concentration or dose not given here
[7] = system: B. subtilis; assay: as above; format: cell-based, Bacillus subtilis; parameters: key: A: Peptide aggregates; B: Less hyphal formation; Clumps; Diffuse clumps and small polyps; F: Diffuse growth; H: Thin; I: Growth inhibition; Microcolony formation; Rippled; Small polyps; Thick; W: Halo formation on top, microlonies on bottom
[8] = system: S. mutans; assay: as above; format: cell-based, Streptococcus mutans; parameters: key: A: Peptide aggregates; B: Less hyphal formation; Clumps; Diffuse clumps and small polyps; F: Diffuse growth; H: Thin; I: Growth inhibition; Microcolony formation; Rippled; Small polyps; Thick; W: Halo formation on top, microlonies on bottom; also: test concentration or dose not given here
[9] = system: F. nucleatum; assay: as above; format: cell-based, Fusobacterium nucleatum; parameters: key: A: Peptide aggregates; B: Less hyphal formation; Clumps; Diffuse clumps and small polyps; F: Diffuse growth; H: Thin; I: Growth inhibition; Microcolony formation; Rippled; Small polyps; Thick; W: Halo formation on top, microlonies on bottom; also: test concentration or dose not given here
For Organism, effect in this document: test concentration or dose not given here.

Row | Substance | Activities [2] | Organism, effect (morphology, biofilm and growth disruption) [9] | Target(s) (microorganisms bound by the targeting peptide) [3] | also measured
1 | ASKQASKQASKQASKQASKQASRSLKNHLL [PF-523] | B M | – | – | MIC [1]: S. pneumoniae, 50 μM; Target(s) [3]: S. epidermidis; also recorded: M. luteus; also recorded: C. albicans; also recorded: S. pneumoniae; also recorded: C. jeikeium; also recorded: C. jejuni
2 | CGKLLEQKNFFLKTR [PF-521] | G B M | – | – | Organism, effect [4]: S. pneumoniae (H); MIC [1]: S. pneumoniae, 50 μM; Target(s) [3]: S. epidermidis; also recorded: E. coli; also recorded: P. aeruginosa; also recorded: S. pneumoniae; also recorded: E. faecalis
3 | FQKPFTGEEVEDFQDDDEIPTII [PF-437] | G M | – | – | Organism, effect [4]: S. pneumoniae (I); MIC [1]: S. pneumoniae, 50 μM
4 | GIVLIGLKLIPLLANVLR [PF-322] | G M | – | – | MIC [5]: B. subtilis, 50 μM; Organism, effect [6]: S. epidermidis (C); Organism, effect [7]: B. subtilis (H)
5 | LGLTAGVAYAAQPTNQPTNQPTNQPTNQPTNQPTNQPRW-NH2 [PF-520] | G B M | – | – | Organism, effect [4]: S. pneumoniae (M); MIC [1]: S. pneumoniae, 50 μM
6 | LVLRICTDLFTFIKWTIKQRKS [PF-497] | B M | – | – | MIC [5]: B. subtilis, 50 μM; Target(s) [3]: S. mutans; also recorded: B. subtilis; also recorded: E. coli
7 | PF-C055: peptide having multiple activities (YNLSIYIYFLHTITIAGLITLPFII; Peptide with targeting and/or antimicrobial activity) | G B | F. nucleatum (T) | A. naeslundii; also recorded: F. nucleatum; also recorded: P. gingivalis; also recorded: S. mutans | Organism, effect (morphology, biofilm and growth disruption) [8]: S. mutans (I)
8 | PF-C062: peptide having multiple activities (PLARATEVVATLFIICSLLLYLTR; Peptide with targeting and/or antimicrobial activity) | G B | F. nucleatum (T) | A. naeslundii; also recorded: F. nucleatum; also recorded: P. gingivalis; also recorded: S. mutans; also recorded: T. denticola | Organism, effect (morphology, biofilm and growth disruption) [8]: S. mutans (I)
9 | PF-C064: peptide having multiple activities (DEEALEMGANLYAQFAIDFLNSKK; Peptide with targeting and/or antimicrobial activity) | G B | F. nucleatum (T) | A. naeslundii; also recorded: F. nucleatum; also recorded: P. gingivalis; also recorded: S. mutans; also recorded: T. denticola | –
10 | PF-C069: peptide having multiple activities (NALMLREMQLAKNIKVEVTDVLSNKKYC; Peptide with targeting and/or antimicrobial activity) | G B | F. nucleatum (T) | A. naeslundii; also recorded: F. nucleatum; also recorded: P. gingivalis; also recorded: S. mutans; also recorded: T. denticola | –
11 | PF-C071: peptide having multiple activities (QVIVKIL; Peptide with targeting and/or antimicrobial activity) | G B | F. nucleatum (T) | A. naeslundii; also recorded: F. nucleatum; also recorded: S. mutans | –
12 | PF-C091: peptide having multiple activities (ASNTPRFVRLTLFNFYSKIWNVTHLFLFNNL; Peptide with targeting and/or antimicrobial activity) | G B | F. nucleatum (T) | A. naeslundii; also recorded: F. nucleatum; also recorded: P. gingivalis; also recorded: S. mutans; also recorded: T. denticola | –
13 | PF-C120: peptide having multiple activities (ASLSTMTFKVMELKELIILLCGLTMLMIQTEFV; Peptide with targeting and/or antimicrobial activity) | G B | F. nucleatum (T) | A. naeslundii; also recorded: F. nucleatum; also recorded: P. gingivalis; also recorded: S. mutans; also recorded: T. denticola | –
14 | PF-C131: peptide having multiple activities (QWIVAKREIRMHIYCHISVIHVIIFFG; Peptide with targeting and/or antimicrobial activity) | G B | F. nucleatum (T) | A. naeslundii; also recorded: F. nucleatum; also recorded: P. gingivalis; also recorded: S. mutans | Organism, effect (morphology, biofilm and growth disruption) [8]: S. mutans (F)
15 | PF-C137: peptide having multiple activities (QRMYWFKRGFETGDFSAGDTFAELK; Peptide with targeting and/or antimicrobial activity) | G B | F. nucleatum (T) | A. naeslundii; also recorded: F. nucleatum; also recorded: P. gingivalis; also recorded: S. mutans | –
16 | PF-C143: peptide having multiple activities (VVFGGGDRLV; Peptide with targeting and/or antimicrobial activity) | G B | F. nucleatum (C) | A. naeslundii; also recorded: F. nucleatum; also recorded: P. gingivalis; also recorded: S. mutans; also recorded: T. denticola | –
17 | PF-C145: peptide having multiple activities (YGKESDP; Peptide with targeting and/or antimicrobial activity) | G B | F. nucleatum (C) | A. naeslundii; also recorded: F. nucleatum; also recorded: P. gingivalis; also recorded: S. mutans; also recorded: T. denticola | Organism, effect (morphology, biofilm and growth disruption) [8]: S. mutans (I)
18 | PF-C181: peptide having multiple activities (KMRAGQVVFIYKLILVLLFYVLQKLFDLKKGCF; Peptide with targeting and/or antimicrobial activity) | G B | F. nucleatum (T) | P. gingivalis | –
19 | PF-C214 (GGHKQLVIEPLVSQ; Peptide with targeting and/or antimicrobial activity) | – | F. nucleatum (T) | – | –
20 | PF-C291: peptide having multiple activities (HPFLTGTGCPLFLIFRLFFVKAYFSFTVF; Peptide with targeting and/or antimicrobial activity) | G B | F. nucleatum (T) | A. naeslundii; also recorded: F. nucleatum; also recorded: P. gingivalis; also recorded: S. mutans | Organism, effect (morphology, biofilm and growth disruption) [8]: S. mutans (F)
21 | SFMPEIQKNTIPTQMK [PF-512] | G B M | – | – | Organism, effect [4]: S. pneumoniae (H); MIC [1]: S. pneumoniae, 50 μM; Target(s) [3]: S. pneumoniae; also recorded: C. jeikeium
22 | VMQSLYVKPPLILVTKLAQQN [PF-511] | G B M | – | – | Organism, effect [4]: S. pneumoniae (H); MIC [1]: S. pneumoniae, 50 μM; Target(s) [3]: E. coli; also recorded: P. aeruginosa; also recorded: S. pneumoniae; also recorded: C. jeikeium
23 | VYSFLYVLVIVRKLLSMKKRIERL [PF-499] | B M | – | – | MIC [5]: B. subtilis, 50 μM; Target(s) [3]: S. mutans; also recorded: E. coli
